Where two headings read alike, the source gives them in different places.
Key:
NF-κB p65 [1] = assay: HCS assay of compound-induced NF-κB p65 nuclear translocation in HPTC (Example 2); assay type: cell-based, human
NF-κB p65 [2] = assay: HCS assay of compound-induced NF-κB p65 nuclear translocation in HPTC1 (Example 3); assay type: cell-based, human; details: for nuclear translocation of NF-κB (positive control sample): FIG. 9
Source text: (§1) No. 58488852 (HPTC 1) and Lot. No. 61247356 (HPTC10), were bought from the American Type Culture Collection (ATCC, Manassas, Va., USA). HPTC6 were isolated from a nephrectomy sample obtained from the National University Health System (NUHS, Singapore). Only normal tissue without pathological changes was used, which was selected by a pathologist. […] No. PCS-400-030) supplemented with Renal Epithelial Cell Growth Kit (ATCC, Cat. No. PCS-400-040) and 1% Penicillin Streptomycin (Gibco, Cat. No. 15140-122). […] HK-2 and LLC-PK1cells were purchased from ATCC. These two cell lines were maintained in Dulbecco's Modified Eagle Medium (DMEM) supplemented with 10% fetal bovine serum (FBS) and 1% Penicillin Streptomycin. Approval for the work with human kidney samples (DSRB-E/11/143) and cell types (NUS-IRB Ref. Code: 09-[…]) had been obtained. All cells were incubated in a humidified atmosphere at 37° C. and 5% CO2. Cells were seeded into 384-well black plates with transparent bottom (Greiner, Cat. No. 781091). HPTC1 and HPTC6 were seeded at 50,000 cells/cm^2; HPTC10 were seeded at 100,000 cells/cm^2; HK-2 cells were seeded at 20,000 cells/cm^2 and LLC-PK1 cells were seeded at 10,000 cells/cm^2 to adjust for the different growth kinetics of the different cell types and batches used. All cells were cultivated for 3 days to achieve the formation of a differentiated simple epithelium before drug treatment overnight (16 hours). The concentrations of the 43 drugs screened were 1000, 500, 250, 125, 63, 16 and 1.6 μg/mL. Puromycin at 100 μg/mL and TNF-α at 100 ng/mL were used as positive controls. […] The images were automatically analysed by using MetaXpressTM image analysis software version 2.0 using the Translocation-Enhanced Module. […] The intensity ratios of the outer nuclear area versus the inner nuclear area were automatically quantified by the MetaXpressTM image analysis software (version 2.0). The final quantitative results for each data point were the average results from 36 images (4 replicates (wells) with 9 multi-channel images per well). […]

HPTC1 = assay: Cell death in HPTC1 by HCS, based on counts of cell nuclei (Example 3); set-up: species or system human; details: HPTC1, 16 hours, 1.6-1000 μg/mL
Source text: as §1, with “CO2.” for “CO2. Cells were seeded into 384-well black plates with transparent bottom (Greiner, Cat. No. 781091). HPTC1 and HPTC6 were seeded at 50,000 cells/cm^2; HPTC10 were seeded at 100,000 cells/cm^2; HK-2 cells were seeded at 20,000 cells/cm^2 and LLC-PK1 cells were seeded at 10,000 cells/cm^2 to adjust for the different growth kinetics of the different cell types and batches used. All cells were cultivated for 3 days to achieve the formation of a differentiated simple epithelium before drug treatment overnight (16 hours). The concentrations of the 43 drugs screened were 1000, 500, 250, 125, 63, 16 and 1.6 μg/mL. Puromycin at 100 μg/mL and TNF-α at 100 ng/mL were used as positive controls.”

[3] = HPTC, 16 hours, 1.6-1000 μg/mL, 96-well plates, HCS images

| Compound | Qualitative analysis of NF-κB translocation (visual inspection) (NF-κB p65 [1]; [3]) | also measured |
| --- | --- | --- |
| O=[As]O[As]=O (stereo not shown) [arsenic (III) oxide] | positive |  |
| [K+].[K+].[O]=[Cr](=[O])([O-])[O][Cr](=[O])(=[O])[O-] [potassium dichromate] | positive |  |
| CC(=O)[O-].CC(=O)[O-].[Pb+2] [lead acetate] | positive |  |
| COc1ccc(C[C@H](N)C(=O)N[C@H]2[C@@H](O)[C@H](n3cnc4c(N(C)C)ncnc43)O[C@@H]2CO)cc1 [puromycin] |  | nuclear translocation of NF-κB (positive control sample) (NF-κB p65 [2]; HPTC1, 16 hours): displayed nuclear translocation of NF-κB |
| TNF-α |  | nuclear translocation of NF-κB (positive control sample) (NF-κB p65 [2]; HPTC1, 100 ng/mL, 16 hours): displayed nuclear translocation of NF-κB |
| C=CC[C@@H]1/C=C(\C)C[C@H](C)C[C@H](OC)[C@H]2O[C@@](O)(C(=O)C(=O)N3CCCC[C@H]3C(=O)O[C@H](/C(C)=C/[C@@H]3CC[C@@H](O)[C@H](OC)C3)[C@H](C)[C@@H](O)CC1=O)[C@H](C)C[C@@H]2OC [Tacrolimus] |  | IC50 (compound concentration where cell death occurred in 50% of cells; counts of cell nuclei) (HPTC1): relatively low; EC50 (compound concentration where nuclear translocation of NF-κB occurred in 50% of cells) (NF-κB p65 [2]; HPTC1, 16 hours, 1.6-1000 μg/mL): relatively low |
| [Cl][Au] [gold (I) chloride] | positive |  |
| bismuth (III) oxide | positive |  |
| C[n+]1ccc(-c2cc[n+](C)cc2)cc1 [paraquat] |  | Qualitative analysis of NF-κB translocation (visual inspection) (NF-κB p65 [1]): positive |
